For the experiment, the system named is CD2F1 mice, L1210 leukemia ip, survival T/C. The experiment in a line: NCI In Vivo Anticancer Drug Screen. Data for tumor model L1210 Leukemia (intraperitoneal) in CD2F1 (CDF1) mice. The following applies: higher = longer survival. In short, it runs like this:
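Vehicle-treated tumor-bearing mice served as controls (C) for compound-treated mice (T). Reported figure is T divided by C.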

Where [1] appears, read: endpoint: mean survival time, dose: 100.0 mg/kg/injection, schedule: Q01DX009 (ip), vehicle: saline with Tween-80.

Molecules are shown by their SMILES. Values joined by “and” are separate entries in the source; they are usually repeats but may differ in a detail not shown here. Equal entries are not always repeated. Toxic doses and inconclusive results are not listed.

On to `CS(=O)(=O)OCCCCOS(C)(=O)=O`, for which the T/C is 92 % of control (endpoint: mean survival time, dose: 3.75 mg/kg/injection, schedule: Q01DX009 (ip), vehicle: saline with Tween-80); 96 % of control (endpoint: mean survival time, dose: 3.75 mg/kg/injection, schedule: Q03HX008 (ip), vehicle: saline with Tween-80); 94 % of control (endpoint: mean survival time, dose: 3.75 mg/kg/injection, schedule: Q03HX016 (ip), vehicle: saline with Tween-80); 104 % of control (endpoint: mean survival time, dose: 3.75 mg/kg/injection, schedule: Q03HX024 (ip), vehicle: saline with Tween-80); 102 % of control (endpoint: mean survival time, dose: 7.5 mg/kg/injection, schedule: Q01DX009 (ip), vehicle: saline with Tween-80); 100 % of control (endpoint: mean survival time, dose: 7.5 mg/kg/injection, schedule: Q03HX008 (ip), vehicle: saline with Tween-80). Further, the T/C runs as follows: (endpoint: mean survival time, dose: 7.5 mg/kg/injection, schedule: Q03HX016 (ip), vehicle: saline with Tween-80) 98 % of control; (endpoint: mean survival time, dose: 7.5 mg/kg/injection, schedule: Q03HX024 (ip), vehicle: saline with Tween-80) 106 % of control; (endpoint: mean survival time, dose: 12.5 mg/kg/injection, schedule: Q01DX001 (ip), vehicle: saline) 98 % of control; (endpoint: mean survival time, dose: 15.0 mg/kg/injection, schedule: Q01DX009 (ip), vehicle: saline with Tween-80) 97 % of control; (endpoint: mean survival time, dose: 15.0 mg/kg/injection, schedule: Q01DX009 (oral), vehicle: saline with Tween-80) 97 % of control; (endpoint: mean survival time, dose: 15.0 mg/kg/injection, schedule: Q03HX008 (ip), vehicle: saline with Tween-80) 102 % of control. The T/C runs as follows: (endpoint: mean survival time, dose: 15.0 mg/kg/injection, schedule: Q03HX016 (ip), vehicle: saline with Tween-80) 98 % of control; (endpoint: mean survival time, dose: 15.0 mg/kg/injection, schedule: Q03HX024 (ip), vehicle: saline with Tween-80) 103 % of control; (endpoint: mean survival time, dose: 25.0 mg/kg/injection, schedule: Q01DX001 (ip), vehicle: saline) 102 % of control; (endpoint: mean survival time, dose: 30.0 mg/kg/injection, schedule: Q01DX001 (ip), vehicle: saline with Tween-80) 98 % of control; (endpoint: mean survival time, dose: 30.0 mg/kg/injection, schedule: Q01DX009 (ip), vehicle: saline with Tween-80) 100 % of control; (endpoint: mean survival time, dose: 30.0 mg/kg/injection, schedule: Q01DX009 (oral), vehicle: saline with Tween-80) 94 % of control. In addition, the T/C reads like this: (endpoint: mean survival time, dose: 30.0 mg/kg/injection, schedule: Q03HX008 (ip), vehicle: saline with Tween-80) 107 % of control; (endpoint: mean survival time, dose: 30.0 mg/kg/injection, schedule: Q03HX016 (ip), vehicle: saline with Tween-80) 98 % of control; (endpoint: mean survival time, dose: 30.0 mg/kg/injection, schedule: Q03HX024 (ip), vehicle: saline with Tween-80) 107 % of control; (endpoint: mean survival time, dose: 30.0 mg/kg/injection, schedule: Q04DX003 (ip), vehicle: saline with Tween-80) 101 % of control; (endpoint: mean survival time, dose: 30.0 mg/kg/injection, schedule: Q08DX002 (ip), vehicle: saline with Tween-80) 98 % of control; (endpoint: mean survival time, dose: 50.0 mg/kg/injection, schedule: Q01DX001 (ip), vehicle: saline) 101 % of control. For the same compound, the T/C (endpoint: mean survival time, dose: 60.0 mg/kg/injection, schedule: Q01DX001 (ip), vehicle: saline with Tween-80) is 104 % of control; the T/C (endpoint: mean survival time, dose: 60.0 mg/kg/injection, schedule: Q01DX001 (oral), vehicle: saline with Tween-80) was 100 % of control; the T/C (endpoint: mean survival time, dose: 60.0 mg/kg/injection, schedule: Q04DX003 (ip), vehicle: saline with Tween-80) is 96 % of control; the T/C (endpoint: mean survival time, dose: 60.0 mg/kg/injection, schedule: Q08DX002 (ip), vehicle: saline with Tween-80) was 98 % of control; the T/C (endpoint: mean survival time, dose: 100.0 mg/kg/injection, schedule: Q01DX001 (ip), vehicle: saline) is 112 % of control; the T/C (endpoint: mean survival time, dose: 120.0 mg/kg/injection, schedule: Q01DX001 (ip), vehicle: saline with Tween-80) is 104 % of control. Further, the T/C (endpoint: mean survival time, dose: 120.0 mg/kg/injection, schedule: Q08DX002 (ip), vehicle: saline with Tween-80) was 97 % of control and the T/C (endpoint: mean survival time, dose: 240.0 mg/kg/injection, schedule: Q08DX002 (ip), vehicle: saline with Tween-80) was 100 % of control.

With `Nc1nc(N)c(NC=O)c(N)n1`, the T/C (endpoint: mean survival time, dose: 12.5 mg/kg/injection, schedule: Q01DX009 (ip), vehicle: water) was 101 % of control; the T/C (endpoint: mean survival time, dose: 25.0 mg/kg/injection, schedule: Q01DX009 (ip), vehicle: water) was 101 % of control; the T/C (endpoint: mean survival time, dose: 50.0 mg/kg/injection, schedule: Q01DX009 (ip), vehicle: water) was 106 % of control; the T/C (endpoint: mean survival time, dose: 100.0 mg/kg/injection, schedule: Q01DX009 (ip), vehicle: water) is 103 % of control; the T/C (endpoint: mean survival time, dose: 200.0 mg/kg/injection, schedule: Q01DX009 (ip), vehicle: water) was 103 % of control.

Take `CCCCCCOS(=O)OC(C)C(Cl)C(=O)OCC` (stereo unspecified): the T/C reads like this: under setting [1], 97 % of control; (endpoint: mean survival time, dose: 200.0 mg/kg/injection, schedule: Q01DX009 (ip), vehicle: saline with Tween-80) 97 % of control; (endpoint: mean survival time, dose: 400.0 mg/kg/injection, schedule: Q01DX009 (ip), vehicle: saline with Tween-80) 100 % of control.

With `O=c1[nH]c(=O)n(C2OC(CO)C(O)C2O)o1` (stereo unspecified), the T/C by setting is: (endpoint: mean survival time, dose: 12.5 mg/kg/injection, schedule: Q01DX005 (ip), vehicle: water) 93 % of control; (endpoint: mean survival time, dose: 25.0 mg/kg/injection, schedule: Q01DX005 (ip), vehicle: water) 101 % of control; (endpoint: mean survival time, dose: 50.0 mg/kg/injection, schedule: Q01DX005 (ip), vehicle: water) 90 % of control; (endpoint: mean survival time, dose: 100.0 mg/kg/injection, schedule: Q01DX005 (ip), vehicle: water) 98 % of control; (endpoint: mean survival time, dose: 200.0 mg/kg/injection, schedule: Q01DX005 (ip), vehicle: water) 96 % of control.

For the compound `CNCCOc1ccc(Cl)cc1`, the T/C was 94 % of control (endpoint: mean survival time, dose: 25.0 mg/kg/injection, schedule: Q01DX009 (ip), vehicle: saline with Tween-80); 96 % of control (endpoint: mean survival time, dose: 25.0 mg/kg/injection, schedule: Q04DX003 (ip), vehicle: saline with Tween-80); 96 % of control (endpoint: mean survival time, dose: 50.0 mg/kg/injection, schedule: Q01DX009 (ip), vehicle: saline with Tween-80); 113 % of control (endpoint: mean survival time, dose: 50.0 mg/kg/injection, schedule: Q04DX003 (ip), vehicle: saline with Tween-80); 96 % of control under setting [1]; 96 % of control and 97 % of control (endpoint: mean survival time, dose: 100.0 mg/kg/injection, schedule: Q04DX003 (ip), vehicle: saline with Tween-80).

`N=C(N)SCc1cccc([N+](=O)[O-])c1`: where the note is “endpoint: mean survival time, dose: 100.0 mg/kg/injection, schedule: Q04DX002 (ip), vehicle: saline with Tween-80”, the T/C was 97 % of control.

Consider `CC[C@@]1(O)C(=O)OCc2c1cc1n(c2=O)Cc2cc3c(N)cccc3nc2-1`, for which the T/C reads like this: (endpoint: median survival time, dose: 0.25 mg/kg/injection, schedule: Q01DX005 (ip), vehicle: saline with Tween-80) 168 % of control; (endpoint: median survival time, dose: 0.3 mg/kg/injection, schedule: Q01DX005 (ip), vehicle: saline with Tween-80) 150 % of control; (endpoint: median survival time, dose: 0.5 mg/kg/injection, schedule: Q01DX005 (ip), vehicle: saline with Tween-80) 182 % of control and 223 % of control; (endpoint: median survival time, dose: 0.63 mg/kg/injection, schedule: Q04DX002 (ip), vehicle: saline with Tween-80) 202 % of control; (endpoint: median survival time, dose: 0.84 mg/kg/injection, schedule: Q01DX005 (ip), vehicle: saline with Tween-80) 182 % of control; (endpoint: median survival time, dose: 1.0 mg/kg/injection, schedule: Q01DX005 (ip), vehicle: saline with Tween-80) 108 % of control. Besides, the T/C was 228 % of control (endpoint: median survival time, dose: 1.25 mg/kg/injection, schedule: Q04DX002 (ip), vehicle: saline with Tween-80); 365 % of control (endpoint: median survival time, dose: 1.39 mg/kg/injection, schedule: Q01DX005 (ip), vehicle: saline with Tween-80); 87 % of control (endpoint: median survival time, dose: 2.0 mg/kg/injection, schedule: Q01DX005 (ip), vehicle: saline with Tween-80); 121 % of control (endpoint: median survival time, dose: 2.32 mg/kg/injection, schedule: Q01DX005 (ip), vehicle: saline with Tween-80); 348 % of control and 361 % of control (endpoint: median survival time, dose: 2.5 mg/kg/injection, schedule: Q04DX002 (ip), vehicle: saline with Tween-80); 220 % of control and 361 % of control (endpoint: median survival time, dose: 5.0 mg/kg/injection, schedule: Q04DX002 (ip), vehicle: saline with Tween-80). Besides, the T/C (endpoint: median survival time, dose: 10.0 mg/kg/injection, schedule: Q04DX002 (ip), vehicle: saline with Tween-80) is 93 % of control.

In the case of `O=[N+]([O-])c1ccccc1NCCO`, the T/C is, setting by setting: (endpoint: mean survival time, dose: 100.0 mg/kg/injection, schedule: Q01DX001 (ip), vehicle: saline with Tween-80) 101 % of control; (endpoint: mean survival time, dose: 200.0 mg/kg/injection, schedule: Q01DX001 (ip), vehicle: saline with Tween-80) 98 % of control; (endpoint: mean survival time, dose: 400.0 mg/kg/injection, schedule: Q01DX001 (ip), vehicle: saline with Tween-80) 102 % of control.

`O=C1CCC(=O)CC1`: the T/C runs as follows: (endpoint: mean survival time, dose: 100.0 mg/kg/injection, schedule: Q04DX002 (ip), vehicle: saline) 111 % of control; (endpoint: mean survival time, dose: 200.0 mg/kg/injection, schedule: Q04DX002 (ip), vehicle: saline) 107 % of control; (endpoint: mean survival time, dose: 400.0 mg/kg/injection, schedule: Q04DX002 (ip), vehicle: saline) 107 % of control.

Source of the values: PubChem BioAssay AID256 (DTP/NCI, 2004).
